According to ChEMBL document CHEMBL1145498, “A systematic interaction map of validated kinase inhibitors with Ser/Thr kinases” (Proc Natl Acad Sci U S A, 2007):

Each molecule was assayed against T1, Calcium/calmodulin-dependent protein kinase type IV (Homo sapiens) (UniProt Q16566).
T1 sequence (whole entry): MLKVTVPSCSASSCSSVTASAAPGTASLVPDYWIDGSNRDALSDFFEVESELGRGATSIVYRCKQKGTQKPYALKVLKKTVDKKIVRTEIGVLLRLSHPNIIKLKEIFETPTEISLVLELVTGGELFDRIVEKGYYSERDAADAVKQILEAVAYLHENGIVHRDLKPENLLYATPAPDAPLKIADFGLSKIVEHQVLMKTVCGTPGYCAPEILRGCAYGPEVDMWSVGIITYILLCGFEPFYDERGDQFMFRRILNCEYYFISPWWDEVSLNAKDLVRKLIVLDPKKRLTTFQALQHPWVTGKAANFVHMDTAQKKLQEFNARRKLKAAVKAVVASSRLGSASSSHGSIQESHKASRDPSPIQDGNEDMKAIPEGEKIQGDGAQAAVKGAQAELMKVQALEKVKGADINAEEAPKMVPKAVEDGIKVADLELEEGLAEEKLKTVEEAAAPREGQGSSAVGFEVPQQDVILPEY
In the case of `CC(C)c1nn(-c2c(Cl)cccc2Cl)c2nc(Cc3ccc(OCCO)cc3)[nH]c(=O)c12`, the ΔTm is reported as -3.4 °C.
Molecule `CN(c1cccnc1)c1cc2c(Nc3ccc(F)c(Cl)c3)c(C#N)cnc2cn1` has a ΔTm of -3.4 °C.
Work on `COc1ccc(Cl)cc1NC(=O)Nc1cc(C)nc2ccccc12` yielded a ΔTm of 0.6 °C.
In the case of `O=C(Nc1cccc(Nc2nccc(Nc3cccc(C(F)(F)F)c3)n2)c1)C1CC1` [ANILINOPYRIMIDINE1], the ΔTm is reported as 0.7 °C.
Molecule `CCCNC(=O)Nc1ccc(Oc2ncnc3cc(OC)c(OC)cc23)cc1Cl` [KRN-633] has a ΔTm of 0.9 °C.
Molecule `Cc1nc(N)sc1-c1ccnc(Nc2cccc([N+](=O)[O-])c2)n1` has a ΔTm of 1.8 °C.

What follows are molecules tested against Serine/threonine-protein kinase RIO2 (Homo sapiens) (UniProt Q9BVS4).
Chain of Serine/threonine-protein kinase RIO2 (Homo sapiens) (Q9BVS4 whole entry, looked up): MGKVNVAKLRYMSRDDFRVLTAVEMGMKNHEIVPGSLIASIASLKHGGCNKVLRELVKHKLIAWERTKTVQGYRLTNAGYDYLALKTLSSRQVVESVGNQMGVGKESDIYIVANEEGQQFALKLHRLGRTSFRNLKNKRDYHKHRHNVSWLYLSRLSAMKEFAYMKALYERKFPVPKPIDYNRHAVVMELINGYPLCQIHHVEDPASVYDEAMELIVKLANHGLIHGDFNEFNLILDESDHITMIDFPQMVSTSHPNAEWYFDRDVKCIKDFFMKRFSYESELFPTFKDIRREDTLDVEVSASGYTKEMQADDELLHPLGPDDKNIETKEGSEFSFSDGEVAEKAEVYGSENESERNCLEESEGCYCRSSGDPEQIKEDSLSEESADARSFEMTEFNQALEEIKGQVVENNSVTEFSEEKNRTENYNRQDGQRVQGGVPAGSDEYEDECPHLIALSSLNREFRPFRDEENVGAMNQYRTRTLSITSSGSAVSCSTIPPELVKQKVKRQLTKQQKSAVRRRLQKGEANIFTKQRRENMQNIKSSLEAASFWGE
`CC(C)c1nn(-c2c(Cl)cccc2Cl)c2nc(Cc3ccc(OCCO)cc3)[nH]c(=O)c12` showed a ΔTm of 0.1 °C.
Molecule `CN(c1cccnc1)c1cc2c(Nc3ccc(F)c(Cl)c3)c(C#N)cnc2cn1` has a ΔTm of 6.1 °C.
`COc1ccc(Cl)cc1NC(=O)Nc1cc(C)nc2ccccc12` gave a ΔTm of 0.6 °C.
In the case of `O=C(Nc1cccc(Nc2nccc(Nc3cccc(C(F)(F)F)c3)n2)c1)C1CC1` [ANILINOPYRIMIDINE1], the ΔTm is reported as 3.7 °C.
With `CCCNC(=O)Nc1ccc(Oc2ncnc3cc(OC)c(OC)cc23)cc1Cl` [KRN-633] the ΔTm was 0.2 °C.
`Cc1nc(N)sc1-c1ccnc(Nc2cccc([N+](=O)[O-])c2)n1` gave a ΔTm of 3.6 °C.

These molecules were tested against Ribosomal protein S6 kinase alpha-3 (Homo sapiens) (UniProt P51812).
Chain of Ribosomal protein S6 kinase alpha-3 (Homo sapiens) (P51812 whole entry): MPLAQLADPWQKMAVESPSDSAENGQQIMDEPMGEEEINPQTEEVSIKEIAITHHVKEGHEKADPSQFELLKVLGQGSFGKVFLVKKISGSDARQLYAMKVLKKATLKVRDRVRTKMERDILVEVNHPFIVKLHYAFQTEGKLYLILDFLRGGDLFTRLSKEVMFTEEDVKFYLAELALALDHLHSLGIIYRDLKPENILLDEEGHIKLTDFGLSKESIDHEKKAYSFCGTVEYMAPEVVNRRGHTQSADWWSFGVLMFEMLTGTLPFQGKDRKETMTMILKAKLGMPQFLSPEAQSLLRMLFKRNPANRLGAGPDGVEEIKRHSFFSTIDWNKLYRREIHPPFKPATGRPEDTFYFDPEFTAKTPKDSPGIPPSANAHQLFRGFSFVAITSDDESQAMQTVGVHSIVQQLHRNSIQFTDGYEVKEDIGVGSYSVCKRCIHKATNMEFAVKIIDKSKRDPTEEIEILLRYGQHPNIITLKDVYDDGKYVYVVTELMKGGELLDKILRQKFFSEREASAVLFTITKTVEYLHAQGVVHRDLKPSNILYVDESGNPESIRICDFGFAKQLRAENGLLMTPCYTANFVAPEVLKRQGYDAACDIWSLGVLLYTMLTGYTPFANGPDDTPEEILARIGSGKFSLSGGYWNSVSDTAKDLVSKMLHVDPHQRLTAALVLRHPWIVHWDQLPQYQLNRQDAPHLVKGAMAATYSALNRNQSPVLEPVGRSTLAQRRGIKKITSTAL
In the case of `CC(C)c1nn(-c2c(Cl)cccc2Cl)c2nc(Cc3ccc(OCCO)cc3)[nH]c(=O)c12`, the ΔTm is reported as -0.9 °C.
`CN(c1cccnc1)c1cc2c(Nc3ccc(F)c(Cl)c3)c(C#N)cnc2cn1` gave a ΔTm of 8.5 °C.
With `COc1ccc(Cl)cc1NC(=O)Nc1cc(C)nc2ccccc12` the ΔTm was 2.2 °C.
`O=C(Nc1cccc(Nc2nccc(Nc3cccc(C(F)(F)F)c3)n2)c1)C1CC1` [ANILINOPYRIMIDINE1] was tested, and the ΔTm was 4.8 °C.
With `CCCNC(=O)Nc1ccc(Oc2ncnc3cc(OC)c(OC)cc23)cc1Cl` [KRN-633] the ΔTm was 5.8 °C.
In the case of `Cc1nc(N)sc1-c1ccnc(Nc2cccc([N+](=O)[O-])c2)n1`, the ΔTm is reported as 5.9 °C.

These molecules were tested against Serine/threonine-protein kinase PAK 4 (Homo sapiens) (UniProt O96013).
Chain of Serine/threonine-protein kinase PAK 4 (Homo sapiens) (O96013 whole entry, looked up): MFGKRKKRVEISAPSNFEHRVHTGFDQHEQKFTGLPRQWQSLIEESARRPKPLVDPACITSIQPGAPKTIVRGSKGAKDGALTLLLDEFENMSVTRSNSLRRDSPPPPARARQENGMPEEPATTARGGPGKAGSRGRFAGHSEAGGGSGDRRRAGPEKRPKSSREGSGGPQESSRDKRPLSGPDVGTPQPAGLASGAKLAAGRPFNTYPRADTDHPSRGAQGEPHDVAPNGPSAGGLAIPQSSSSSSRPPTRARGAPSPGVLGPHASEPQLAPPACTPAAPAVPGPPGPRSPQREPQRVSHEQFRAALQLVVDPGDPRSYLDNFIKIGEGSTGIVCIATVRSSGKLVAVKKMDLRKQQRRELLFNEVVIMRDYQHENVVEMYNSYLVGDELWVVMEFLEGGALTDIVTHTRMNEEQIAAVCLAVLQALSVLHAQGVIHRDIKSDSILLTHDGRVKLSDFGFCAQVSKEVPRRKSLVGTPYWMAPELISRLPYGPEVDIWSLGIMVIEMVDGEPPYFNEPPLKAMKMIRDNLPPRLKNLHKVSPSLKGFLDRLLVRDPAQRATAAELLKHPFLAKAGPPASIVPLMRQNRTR
Work on `CC(C)c1nn(-c2c(Cl)cccc2Cl)c2nc(Cc3ccc(OCCO)cc3)[nH]c(=O)c12` yielded a ΔTm of 2.2 °C.
Work on `CN(c1cccnc1)c1cc2c(Nc3ccc(F)c(Cl)c3)c(C#N)cnc2cn1` yielded a ΔTm of 2.6 °C.
For `COc1ccc(Cl)cc1NC(=O)Nc1cc(C)nc2ccccc12`, the ΔTm was -0.6 °C.
In the case of `O=C(Nc1cccc(Nc2nccc(Nc3cccc(C(F)(F)F)c3)n2)c1)C1CC1` [ANILINOPYRIMIDINE1], the ΔTm is reported as 1.5 °C.
For `CCCNC(=O)Nc1ccc(Oc2ncnc3cc(OC)c(OC)cc23)cc1Cl` [KRN-633], the ΔTm was 0.5 °C.
`Cc1nc(N)sc1-c1ccnc(Nc2cccc([N+](=O)[O-])c2)n1` was tested, and the ΔTm was 1.6 °C.

These molecules were tested against T2, Lymphokine-activated killer T-cell-originated protein kinase (Homo sapiens) (UniProt Q96KB5).
T2 sequence (whole entry): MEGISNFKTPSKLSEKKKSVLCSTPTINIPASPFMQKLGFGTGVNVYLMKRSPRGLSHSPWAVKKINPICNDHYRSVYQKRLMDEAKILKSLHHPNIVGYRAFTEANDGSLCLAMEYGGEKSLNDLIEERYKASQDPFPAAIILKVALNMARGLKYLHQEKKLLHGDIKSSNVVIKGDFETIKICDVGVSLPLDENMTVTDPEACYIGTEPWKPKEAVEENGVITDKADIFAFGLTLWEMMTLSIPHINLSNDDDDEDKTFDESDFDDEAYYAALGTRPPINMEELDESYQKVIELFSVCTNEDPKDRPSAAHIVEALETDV
`CCCNC(=O)Nc1ccc(Oc2ncnc3cc(OC)c(OC)cc23)cc1Cl` [KRN-633] gave a ΔTm of 0.2 °C.

What follows are molecules tested against Serine/threonine-protein kinase pim-3 (Homo sapiens) (UniProt Q86V86).
`CC(C)c1nn(-c2c(Cl)cccc2Cl)c2nc(Cc3ccc(OCCO)cc3)[nH]c(=O)c12` gave a ΔTm of -0.4 °C.
Work on `CN(c1cccnc1)c1cc2c(Nc3ccc(F)c(Cl)c3)c(C#N)cnc2cn1` yielded a ΔTm of -0.2 °C.
With `COc1ccc(Cl)cc1NC(=O)Nc1cc(C)nc2ccccc12` the ΔTm was 0.8 °C.
`O=C(Nc1cccc(Nc2nccc(Nc3cccc(C(F)(F)F)c3)n2)c1)C1CC1` [ANILINOPYRIMIDINE1] was tested, and the ΔTm was -0.7 °C.
Work on `CCCNC(=O)Nc1ccc(Oc2ncnc3cc(OC)c(OC)cc23)cc1Cl` [KRN-633] yielded a ΔTm of 4.9 °C.
`Cc1nc(N)sc1-c1ccnc(Nc2cccc([N+](=O)[O-])c2)n1` gave a ΔTm of 1.8 °C.

These molecules were tested against Serine/threonine-protein kinase 16 (Homo sapiens) (UniProt O75716).
Chain of Serine/threonine-protein kinase 16 (Homo sapiens) (O75716 whole entry): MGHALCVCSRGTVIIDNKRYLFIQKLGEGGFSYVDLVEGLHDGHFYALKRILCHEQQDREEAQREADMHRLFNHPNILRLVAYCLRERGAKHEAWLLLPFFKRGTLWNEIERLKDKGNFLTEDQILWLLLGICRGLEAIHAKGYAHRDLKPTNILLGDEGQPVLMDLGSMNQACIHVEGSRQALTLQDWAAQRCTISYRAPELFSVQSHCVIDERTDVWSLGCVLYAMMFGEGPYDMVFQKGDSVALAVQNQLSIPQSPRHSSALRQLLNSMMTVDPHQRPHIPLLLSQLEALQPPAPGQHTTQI
Work on `CC(C)c1nn(-c2c(Cl)cccc2Cl)c2nc(Cc3ccc(OCCO)cc3)[nH]c(=O)c12` yielded a ΔTm of 1.4 °C.
`CN(c1cccnc1)c1cc2c(Nc3ccc(F)c(Cl)c3)c(C#N)cnc2cn1` was tested, and the ΔTm was 8.7 °C.
For `COc1ccc(Cl)cc1NC(=O)Nc1cc(C)nc2ccccc12`, the ΔTm was 0.4 °C.
With `O=C(Nc1cccc(Nc2nccc(Nc3cccc(C(F)(F)F)c3)n2)c1)C1CC1` [ANILINOPYRIMIDINE1] the ΔTm was 2.3 °C.
In the case of `CCCNC(=O)Nc1ccc(Oc2ncnc3cc(OC)c(OC)cc23)cc1Cl` [KRN-633], the ΔTm is reported as 0.2 °C.
Molecule `Cc1nc(N)sc1-c1ccnc(Nc2cccc([N+](=O)[O-])c2)n1` has a ΔTm of 2.9 °C.

Each molecule was assayed against Casein kinase I isoform gamma-2 (Homo sapiens) (UniProt P78368).
Chain of Casein kinase I isoform gamma-2 (Homo sapiens) (P78368 whole entry, looked up, canonical isoform): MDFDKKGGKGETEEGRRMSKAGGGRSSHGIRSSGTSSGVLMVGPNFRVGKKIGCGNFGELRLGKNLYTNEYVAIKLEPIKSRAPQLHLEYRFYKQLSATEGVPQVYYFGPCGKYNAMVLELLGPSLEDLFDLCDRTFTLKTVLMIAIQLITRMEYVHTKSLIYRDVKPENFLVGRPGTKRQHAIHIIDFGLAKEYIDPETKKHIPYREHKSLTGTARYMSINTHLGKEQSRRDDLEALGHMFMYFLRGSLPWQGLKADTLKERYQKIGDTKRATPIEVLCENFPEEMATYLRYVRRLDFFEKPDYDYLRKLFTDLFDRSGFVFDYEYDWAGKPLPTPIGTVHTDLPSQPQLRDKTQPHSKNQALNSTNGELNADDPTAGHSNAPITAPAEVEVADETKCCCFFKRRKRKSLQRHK
`CC(C)c1nn(-c2c(Cl)cccc2Cl)c2nc(Cc3ccc(OCCO)cc3)[nH]c(=O)c12` gave a ΔTm of -0.3 °C.
For `CN(c1cccnc1)c1cc2c(Nc3ccc(F)c(Cl)c3)c(C#N)cnc2cn1`, the ΔTm was 0.4 °C.
`COc1ccc(Cl)cc1NC(=O)Nc1cc(C)nc2ccccc12` was tested, and the ΔTm was -0.1 °C.
For `O=C(Nc1cccc(Nc2nccc(Nc3cccc(C(F)(F)F)c3)n2)c1)C1CC1` [ANILINOPYRIMIDINE1], the ΔTm was 6.5 °C.
With `CCCNC(=O)Nc1ccc(Oc2ncnc3cc(OC)c(OC)cc23)cc1Cl` [KRN-633] the ΔTm was 0.5 °C.
In the case of `Cc1nc(N)sc1-c1ccnc(Nc2cccc([N+](=O)[O-])c2)n1`, the ΔTm is reported as 5.1 °C.

The molecules below were run against Cyclin-dependent kinase 2 (Homo sapiens, UniProt P24941).
Work on `CC(C)c1nn(-c2c(Cl)cccc2Cl)c2nc(Cc3ccc(OCCO)cc3)[nH]c(=O)c12` yielded a ΔTm of 10.6 °C.
Molecule `CN(c1cccnc1)c1cc2c(Nc3ccc(F)c(Cl)c3)c(C#N)cnc2cn1` has a ΔTm of -0.5 °C.
With `COc1ccc(Cl)cc1NC(=O)Nc1cc(C)nc2ccccc12` the ΔTm was -0.6 °C.
With `O=C(Nc1cccc(Nc2nccc(Nc3cccc(C(F)(F)F)c3)n2)c1)C1CC1` [ANILINOPYRIMIDINE1] the ΔTm was 0 °C.
With `CCCNC(=O)Nc1ccc(Oc2ncnc3cc(OC)c(OC)cc23)cc1Cl` [KRN-633] the ΔTm was -0.4 °C.

Each molecule was assayed against T3, Serine/threonine-protein kinase 4 (Homo sapiens) (UniProt Q13043).
T3 sequence (whole entry): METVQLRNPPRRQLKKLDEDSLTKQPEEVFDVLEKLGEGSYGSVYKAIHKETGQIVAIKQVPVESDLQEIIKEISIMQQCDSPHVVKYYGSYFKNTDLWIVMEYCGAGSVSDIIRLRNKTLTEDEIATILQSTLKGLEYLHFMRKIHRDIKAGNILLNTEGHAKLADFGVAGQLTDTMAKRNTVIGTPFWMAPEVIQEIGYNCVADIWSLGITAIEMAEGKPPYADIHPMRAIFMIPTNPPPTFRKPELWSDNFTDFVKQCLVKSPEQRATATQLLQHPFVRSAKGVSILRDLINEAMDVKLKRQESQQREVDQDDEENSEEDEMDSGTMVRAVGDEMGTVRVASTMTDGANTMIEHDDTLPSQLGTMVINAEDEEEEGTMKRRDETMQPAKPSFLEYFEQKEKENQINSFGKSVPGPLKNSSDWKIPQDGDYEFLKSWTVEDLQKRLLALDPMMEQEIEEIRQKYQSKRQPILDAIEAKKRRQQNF
For `CC(C)c1nn(-c2c(Cl)cccc2Cl)c2nc(Cc3ccc(OCCO)cc3)[nH]c(=O)c12`, the ΔTm was 0.1 °C.
In the case of `CN(c1cccnc1)c1cc2c(Nc3ccc(F)c(Cl)c3)c(C#N)cnc2cn1`, the ΔTm is reported as 0.4 °C.
With `O=C(Nc1cccc(Nc2nccc(Nc3cccc(C(F)(F)F)c3)n2)c1)C1CC1` [ANILINOPYRIMIDINE1] the ΔTm was 0.9 °C.
With `CCCNC(=O)Nc1ccc(Oc2ncnc3cc(OC)c(OC)cc23)cc1Cl` [KRN-633] the ΔTm was 0.5 °C.
Work on `Cc1nc(N)sc1-c1ccnc(Nc2cccc([N+](=O)[O-])c2)n1` yielded a ΔTm of 3 °C.
